US20240382465A1, “AROMATIC ACETYLENE DERIVATIVE, AND PREPARATION METHOD THEREFOR AND USE THEREOF” (priority 2021, published 2024)
Converted amounts (≈) assume the structure as drawn.

Experiments:
[1] = target: recombinant Pseudomonas aeruginosa LpxC (Pseudomonas aeruginosa (strain ATCC 15692 / DSM 22644 / CIP 104116 / JCM 14847 / LMG 12228 / 1C / PRS 101 / PAO1), UniProt P47205); test: Inhibition of LpxC enzymatic activity (fluorescamine assay); type: biochemical; settings: recombinant P. aeruginosa LpxC 5 nM, substrate 10 μM, 25° C., 120 minutes; read-out: IC50
How it was run: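 Recombinant P. aeruginosa LpxC (5 nM) with substrate UDP-3-O-(R-3-hydroxydecanoyl)-GlcNAc (10 μM), 120 min at 25 °C; compound 8 points, 4-fold dilution, 0.61-10,000 nM. Product detected by fluorescamine (ex 390/em 495 nm) after stopping with pH 8.0 phosphate; % inhibition versus DMSO control.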

K. pneumoniae ATCC13883 = test: Antibacterial activity, MIC by broth microdilution (CLSI); type: cell-based; settings: Klebsiella pneumoniae; K. pneumoniae ATCC13883, 35° C., 18 to 24 hours; read-out: MIC(K. Pneumoniae)
How it was run: (§1)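 Broth microdilution per CLSI, compound at 64-0.06 μg/mL final in twofold steps (1% DMSO from 100× working solutions). Inoculum 5×10^5 cfu/ml; plates incubated at 35° C for 18-24 hours.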

E. coli ATCC 25922 = test: as above; type: cell-based; settings: Escherichia coli, ATCC25922; E. coli ATCC 25922, 35° C., 18 to 24 hours; read-out: MIC(E. coli)
How it was run: as §1

[2] = Pharmacokinetic assay in mice; type: in vivo; settings: ICR mice, 15 mg/kg, IV; for AUC(0-inf) / clearance / half-life / Vd: male, mouse, plasma; for AUC(0-inf): read-out: Area under curve AUC0-∞; for clearance: read-out: Clearance CL; for half-life: read-out: Half life T½ (converted); for Vd: read-out: Volume of distribution Vdss
Description: ICR mice were used as test animals. The injected compounds 17 and 32 of the present disclosure were measured using the LC/MS/MS method to determine the drug concentrations in plasma at different times, in order to study the pharmacokinetic characteristics of the compounds of the present disclosure in mice.
ICR mice, male, weighing 27.8-38 g, were purchased from VitalRiver Laboratory Animal Technology Co., Ltd.
An appropriate amount of the pharmaceutical compound was weighed, added with an appropriate amount of 10% HP-β-CD, vortexed, sonicated for 20 minutes to dissolve the particles, and filtered (PTFE, […]) to obtain […] of a colorless solution.
ICR mice were divided into groups of injection of each test compound (nine mice in each group), fasted overnight, then administered by injection (IV, at an amount of 15 mg/kg and a volume of 5 mL/kg), and fed 4 hours after administration.
About 0.1 mL of blood was collected from the orbit before administration and 0.083 hours, 0.25 hours, 0.5 hours, 1 hour, 2 hours, 4 hours, 8 hours, 12 hours and 24 hours after administration. The whole blood samples were placed in EDTA-K2-containing anticoagulant tubes. After collected, the blood samples were placed on ice, and centrifuged to separate plasma (centrifugation conditions: 1500 g, 10 minutes). The collected plasma was stored at −40 to −20° C. before analysis.
The content of the compound to be tested in the plasma of mice after injection was determined using LC-MS/MS.

[3] = test system: Klebsiella pneumoniae ATCC 51504; type: in vivo, CD-1 female mice; settings: CD-1 mice; for Change in the body weight of the mice / Reduction of total bacterial load of Klebsiella pneumoniae ATCC 51504 in the lungs compared with the control group: 150 mg/kg intravenous; for Bacterial load in lung, LOG (CFU/mouse), Mean: 150 mg/kg intravenous 2 hours after infection, lungs taken 24 hours after infection
Description: The efficacy of the compounds of the present disclosure against pulmonary infection caused by Klebsiella pneumoniae ATCC 51504 was determined by the following method. The experimental process is briefly described as follows: The experimental day of inoculating Klebsiella pneumoniae ATCC 51504 was defined as Day 0. On Day −4 and Day −1, CD-1 female mice (6-8 weeks old, purchased from VitalRiver Experimental Animal Technology Co., Ltd., divided into 3 groups, 5 animals in each group) were intraperitoneally injected with cyclophosphamide to induce an immunosuppressive state in mice. Klebsiella pneumoniae ATCC 51504 cells were cultured in advance on a Muaeller-Hinton agar culture plate in a 37° C. incubator overnight. The single colonies were collected, suspended in physiological saline, and adjusted to the required concentration using a turbidity meter. CD-1 female mice were inoculated via intranasal instillation. Each mouse was inoculated with 50 μL of bacterial solution, with an inoculation volume of 1×10^7 CFU/mouse. Two hours after infection, CD-1 female mice were intravenously administered with compound 17 and compound 32 at 150 mg/kg (solvent: 10% HP-β-CD in Sterile Water for Injection). 24 hours after infection, CD-1 female mice were euthanized. The lung tissue was taken, homogenized with physiological saline, and then diluted 10 times in a gradient for a total of 5 times. Then, 10 μL of lung tissue homogenate of each dilution ratio was taken, and inoculated into bacterial culture plates, which were incubated in a 37° C. incubator overnight, then photographed and saved. A culture plate with an appropriate dilution ratio was selected to count the number of colonies and calculate the bacterial load in the lung tissue to evaluate the efficacy of the drug in inhibiting bacteria. The determination results of the efficacy of the compounds of the present disclosure on pulmonary infection caused by Klebsiella pneumoniae are shown in Tables 4 and 5 below.

Structure (SMILES)	IC50 [1] [nM]	MIC (K. pneumoniae ATCC13883) [µg/mL]	MIC (E. coli ATCC 25922) [µg/mL]	Pharmacokinetic properties (conclusion) [2]	AUC(0-inf) [2] [ng·h/mL]	clearance [2] [mL/min/kg]	half-life [2] [h]	Vd [2] [L/kg]	Change in the body weight of the mice [3]	Reduction of total bacterial load of Klebsiella pneumoniae ATCC 51504 in the lungs compared with the control group [3] [log value]	Bacterial load in lung, LOG (CFU/mouse), Mean [3]
C[C@H](O)c1nccn1Cc1cc(-c2ccc(C#Cc3ccc(CN4CCC(C(=O)O)CC4)cc3)cc2)on1 [Example 17, (S)-1-(4-((4-(3-((2-(1-hydroxyethyl)-1H-imidazol-1-yl)methyl)isoxazol-5-yl)phenyl)ethynyl)benzyl)piperidin-4-carboxylic acid]	6.7	8 (≈ 15.7 µM)	4 (≈ 7.83 µM)	good pharmacokinetic properties	22500	11.1	1.3	0.48	no significant change	4.78	4.17 LOG (CFU/mouse)
C[C@H](O)c1nccn1Cc1cc(-c2ccc(C#Cc3ccc(CN4CC(CC(=O)O)C4)cc3)cc2)on1 [Example 32, (S)-2-(1-(4-((4-(3-((2-(1-hydroxyethyl)-1H-imidazol-1-yl)methyl)isoxazol-5-yl)phenyl)ethynyl)benzyl)azetidin-3-yl)acetic acid]	19.8	4 (≈ 8.06 µM)	2 (≈ 4.03 µM)	good pharmacokinetic properties	20300	12.3	1.21	0.612	no significant change	4.24	4.42 LOG (CFU/mouse)
